Laboratory results published in the supplement of paper PMC10307832.

Assays:
Assay in all cases: relative viability (nuclei count vs DMSO), 5 days (fraction); higher = more cells survive
Elesclomol + Olaparib = compound: CN(NC(=O)CC(=O)NN(C)C(=S)c1ccccc1)C(=S)c1ccccc1 [Elesclomol] + O=C(c1cc(Cc2n[nH]c(=O)c3ccccc23)ccc1F)N1CCN(C(=O)C2CC2)CC1 [Olaparib] (partner 8 µM)
Outline: (§1)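 One day after seeding in 1536-well plates, lung cancer cell lines were dosed by pin tool. Dosing was either single-drug or a fixed anchor-drug dose plus five library-drug doses (not always all listed) in √10 steps. After 5 days, nuclei were stained in one fix-and-stain step and counted on 4× images, and relative viability is the nuclei count of treated wells over that of vehicle wells, given as the median of duplicate plates.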

Elesclomol + Dasatinib = compound: CN(NC(=O)CC(=O)NN(C)C(=S)c1ccccc1)C(=S)c1ccccc1 [Elesclomol] + Cc1nc(Nc2ncc(C(=O)Nc3c(C)cccc3Cl)s2)cc(N2CCN(CCO)CC2)n1 [Dasatinib] (partner 0.075 µM)
Outline: as §1

Elesclomol + Navitoclax = compound: CN(NC(=O)CC(=O)NN(C)C(=S)c1ccccc1)C(=S)c1ccccc1 [Elesclomol] + CC1(C)CCC(c2ccc(Cl)cc2)=C(CN2CCN(c3ccc(C(=O)NS(=O)(=O)c4ccc(N[C@H](CCN5CCOCC5)CSc5ccccc5)c(S(=O)(=O)C(F)(F)F)c4)cc3)CC2)C1 [Navitoclax] (partner 0.5 µM)
Outline: as §1

Elesclomol + Foretinib = compound: CN(NC(=O)CC(=O)NN(C)C(=S)c1ccccc1)C(=S)c1ccccc1 [Elesclomol] + COc1cc2c(Oc3ccc(NC(=O)C4(C(=O)Nc5ccc(F)cc5)CC4)cc3F)ccnc2cc1OCCCN1CCOCC1 [Foretinib] (partner 0.25 µM)
Outline: as §1

Elesclomol + Decitabine = compound: CN(NC(=O)CC(=O)NN(C)C(=S)c1ccccc1)C(=S)c1ccccc1 [Elesclomol] + Nc1ncn([C@H]2C[C@H](O)[C@@H](CO)O2)c(=O)n1 [Decitabine] (partner 2 µM)
Outline: as §1

Cell Line | relative viability (Elesclomol + Olaparib; first compound 0.003162 µM) | relative viability (Elesclomol + Olaparib; first compound 0.01 µM) | relative viability (Elesclomol + Olaparib; first compound 0.03162 µM) | relative viability (Elesclomol + Olaparib; first compound 0.1 µM) | relative viability (Elesclomol + Dasatinib; first compound 0.003162 µM) | relative viability (Elesclomol + Dasatinib; first compound 0.01 µM) | relative viability (Elesclomol + Dasatinib; first compound 0.03162 µM) | relative viability (Elesclomol + Dasatinib; first compound 0.1 µM) | relative viability (Elesclomol + Navitoclax; first compound 0.003162 µM) | relative viability (Elesclomol + Navitoclax; first compound 0.01 µM) | relative viability (Elesclomol + Navitoclax; first compound 0.03162 µM) | relative viability (Elesclomol + Navitoclax; first compound 0.1 µM) | relative viability (Elesclomol + Foretinib; first compound 0.003162 µM) | relative viability (Elesclomol + Foretinib; first compound 0.01 µM) | relative viability (Elesclomol + Foretinib; first compound 0.03162 µM) | relative viability (Elesclomol + Foretinib; first compound 0.1 µM) | relative viability (Elesclomol + Decitabine; first compound 0.003162 µM) | relative viability (Elesclomol + Decitabine; first compound 0.01 µM) | relative viability (Elesclomol + Decitabine; first compound 0.03162 µM) | relative viability (Elesclomol + Decitabine; first compound 0.1 µM)
NCI-H838 | 0.765 | 0.721 | 0.488 | 0.215 | 0.287 | 0.296 | 0.224 | 0.177 | 1.15 | 1.06 | 0.962 | 0.739 | 1.07 | 0.854 | 0.66 | 0.419 | 0.469 | 0.433 | 0.403 | 0.249
NCI-H3122 | 0.606 | 0.665 | 0.563 | 0.105 | 0.836 | 0.947 | 0.587 | 0.0775 | 1.05 | 1.03 | 1.01 | 0.247 | 1.01 | 0.961 | 0.839 | 0.135 | 0.415 | 0.455 | 0.397 | 0.0861
SK-MES-1 | 0.713 | 0.656 | 0.339 | 0.231 | 0.413 | 0.25 | 0.187 | 0.148 | 1.28 | 0.97 | 1.03 | 0.385 | 0.87 | 0.502 | 0.859 | 0.854 | 0.425 | 0.306 | 0.213 | 0.172
NCI-H1944 | 0.421 | 0.412 | 0.358 | 0.209 | 0.223 | 0.205 | 0.229 | 0.155 | 1.14 | 1.11 | 1.01 | 0.904 | 0.93 | 0.868 | 0.838 | 0.358 | 0.441 | 0.498 | 0.401 | 0.253
LK-2 | 0.65 | 0.503 | 0.332 | 0.0869 | 0.275 | 0.367 | 0.23 | 0.105 | 0.671 | 0.247 | 0.142 | 0.115 | 0.89 | 0.969 | 0.719 | 0.177 | 0.288 | 0.314 | 0.276 | 0.113
PC-3 [JPC-3] | 1.13 | 0.968 | 0.728 | 0.627 | 0.913 | 0.914 | 1.05 | 0.647 | 0.866 | 0.682 | 0.794 | 0.7 | 0.996 | 1.02 | 1.17 | 0.559 | 0.877 | 0.656 | 0.487 | 0.524
COR-L23 | 0.314 | 0.254 | 0.143 | 0.0895 | 0.439 | 0.254 | 0.141 | 0.068 | 0.9 | 0.616 | 0.461 | 0.0852 | 0.977 | 0.667 | 0.418 | 0.198 | 0.439 | 0.347 | 0.282 | 0.163
NCI-H1355 | 0.724 | 0.648 | 0.347 | 0.209 | 0.736 | 0.639 | 0.396 | 0.178 | 1.03 | 0.705 | 0.469 | 0.14 | 0.951 | 0.894 | 0.514 | 0.207 | 0.352 | 0.336 | 0.268 | 0.2
NCI-H460 | 0.421 | 0.251 | 0.194 | 0.0303 | 0.516 | 0.422 | 0.0534 | 0.0171 | 0.997 | 0.379 | 0.0164 | 0.0095 | 0.975 | 0.848 | 0.27 | 0.0259 | 0.433 | 0.396 | 0.107 | 0.0381
NCI-H1993 | 0.967 | 0.789 | 0.516 | 0.393 | 0.577 | 0.508 | 0.494 | 0.453 | 0.934 | 1.19 | 0.63 | 0.508 | 0.772 | 0.671 | 0.553 | 0.533 | 0.613 | 0.505 | 0.477 | 0.389
ChaGo-K-1 | 0.423 | 0.396 | 0.232 | 0.125 | 0.609 | 0.458 | 0.214 | 0.116 | 0.739 | 0.374 | 0.258 | 0.221 | 0.838 | 0.95 | 0.34 | 0.186 | 0.531 | 0.473 | 0.415 | 0.163
HCC-15 | 0.646 | 0.631 | 0.536 | 0.217 | 0.533 | 0.386 | 0.169 | 0.0668 | 0.73 | 0.656 | 0.439 | 0.373 | 0.946 | 0.857 | 0.355 | 0.171 | 0.623 | 0.478 | 0.343 | 0.206
NCI-H23 | 0.3 | 0.267 | 0.187 | 0.0908 | 0.823 | 0.725 | 0.743 | 0.171 | 0.799 | – | 0.761 | 0.144 | 0.971 | 1.03 | 0.746 | 0.247 | 0.338 | 0.338 | 0.213 | 0.147
NCI-H1395 | 0.449 | 0.364 | 0.254 | 0.22 | 0.387 | 0.304 | 0.266 | 0.22 | 1.09 | 0.475 | 0.286 | 0.469 | 1.06 | 0.665 | 0.332 | 0.324 | 0.754 | 0.532 | 0.318 | 0.249
NCI-H1666 | 0.666 | 0.703 | 0.662 | 0.603 | 0.9 | 0.585 | 0.412 | 0.378 | 0.825 | 0.299 | 0.227 | 0.15 | 1.06 | 0.88 | 0.621 | 0.509 | 0.739 | 0.717 | 0.522 | 0.47
